Columns and labels:
Type in all cases: physicochemical
[1] = Hygroscopicity classification applying the Pharmacopeia rules
From the text: The shear cell was fully filled with a sample of powder of the compound of formula (I) thereby preventing condensing the powder. Both samples, sample 1 and sample 2, were classified as non-hydroscopic applying the Pharmacopeia rules.

[2] = Particle size distribution by laser diffraction (Malvern Panalytical Mastersizer 3000, Fraunhofer)
Experimental: The particle size distribution was measured by laser diffraction using the Malvern Panalytical Mastersizer 3000.
The samples are again taken from example 1.6 (probe 1) and example 1.5 (probe 2), the same as used in example 4.
The sample to be analyzed is dispersed in 1 drop of Tween 80 the sample is processed according to ISO13320.
Laser diffraction is an often-used method for determination the particle size of dispersed solid materials. A widened laser beam illuminates a cuvette which contains part of the particles. By diffraction on the particles a characteristic pattern can be mapped on the detector. The resulting diffraction image is the additive overlaying of diffraction images of all particles.
Besides the mentioned detector two additional detectors are mounted in order to detect diffraction light in forward direction (FA1,9), in wide angle (LA1,2) and in back direction (BS1,2). The turbidity of the sample is measured by an extinction sensor. This is necessary to ensure a low particle concentration which is necessary to avoid wrong results by multiple diffraction of light at several particles.
The cuvette used was a wet unit where the suspension is pumped in a closed circuit with a dispersing unit that ensures a separation of single particles by shear forces.
The measurement range of the Malvern 3000 covers a particle size from 1 mm (2 mm) down to 20 nm
The calculation of the particle size distribution from the diffraction patterns was done on basis of theory of Fraunhofer.
This assumption is valid for particle sizes of 10 to 50 μm and above. For smaller particles the light scattering of the particle itself due to optical transparency must be considered which is done in the Mie-theory (not used for our probes). Precondition of the application of the Mie-theory is the knowledge of the refractive and absorption index of the dispersed solids.
Q3 is the cumulative volume distribution, e.g. D50=Q(50%) indicates 50% of the volume part of the sample is smaller than particle size of 50 μm.
The particle size is expressed as an equivalent diameter used in the method recommended by the Malvern Analysis Program and as described in ISO13320.

[3] = Determination of bulk density during shear tests; conditions: during shear test, normal stress 1.5 kPa
Experimental: Because of the normal stress of 1.5 kPa applied on the top of the lid during the shear test the lid lowers into the shear cell and compresses the powder.
During the shear tests this lowering of the lid is measured and recorded. Since the volume of the bottom ring is known and weight of the sample measured before the beginning of the shear test the bulk density of the sample during the shear test is calculated
[formula] • with: • ρb,shear: Bulk density under shear • mges: total mass of shear cell including powder sample (w/o lid) • mcell: net mass of shear cell (w/o powder sample, w/o lid) • hc: height of the bottom ring • hl: lowering of lid • Acell: bottom area of shear cell
The calculation of the bulk density is done automatically with the evaluation software provided together with the shear tester.

[4] = Particle size analysis of micronized product, laser diffraction (Sympatec HELOS/RODOS, dry dispersion); conditions: micronized twice, air jet mill; dry dispersion at 4 bar
From the text: The instrumental set-up for particle size analysis: • Laser diffraction pattern analyzer (Sympatec HELOS, H1970 & RODOS, R3:0.5/0.9 . . . 175 μm), 100 mm focal length, • Dry dispersion (RODOS) at 4 bar, • Mathematical model (LD 5.9.0.0)-Sympatec Code, basis Fraunhofer Diffraction

[5] = without ultrasound (US), listed as Probe 1

Structure (SMILES): C[C@@H]1OC(=O)NN=C1c1ccc(-c2ccc(F)cc2)c(C(F)(F)F)c1 [polymorph A, (6S)-5-[4′-Fluoro-2-(trifluoromethyl)biphenyl-4-yl]-6-methyl-3,6-dihydro-2H-1,3,4-oxadiazin-2-one]
- hygroscopicity classification [1]: non-hydroscopic
- difference between Q3[50] of untreated sample and sample treated 300 s with ultrasound [2]: large
- D(10) ([2]; 300 s US, listed as Probe 1): 4.02 μm
- D(50) ([2]; 300 s US, listed as Probe 1): 44 μm
- D(90) ([2]; 300 s US, listed as Probe 1): 128 μm
- amount of fines ([2]; after US treatment of 300 s, compared to polymorph C): significantly larger
- particle size distribution compared to polymorph C ([2]; after ultrasound treatment): significantly smaller particle size and broader distribution
- Cumulative volume distribution Q ([2]; particle size D 0.01 μm, 300 s US): 0%
- Cumulative volume distribution Q ([2]; particle size D 0.01 μm, without US): 0%
- Cumulative volume distribution Q ([2]; particle size D 0.0114 μm, 300 s US): 0%
- Cumulative volume distribution Q ([2]; particle size D 0.0114 μm, without US): 0%
- Cumulative volume distribution Q ([2]; particle size D 0.0129 μm, 300 s US): 0%
- Cumulative volume distribution Q ([2]; particle size D 0.0129 μm, without US): 0%
- Cumulative volume distribution Q ([2]; particle size D 0.0147 μm, 300 s US): 0%
- Cumulative volume distribution Q ([2]; particle size D 0.0147 μm, without US): 0%
- Cumulative volume distribution Q ([2]; particle size D 0.0167 μm, 300 s US): 0%
- Cumulative volume distribution Q ([2]; particle size D 0.0167 μm, without US): 0%
- Cumulative volume distribution Q ([2]; particle size D 0.0189 μm, 300 s US): 0%
- Cumulative volume distribution Q ([2]; particle size D 0.0189 μm, without US): 0%
- Cumulative volume distribution Q ([2]; particle size D 0.0215 μm, 300 s US): 0%
- Cumulative volume distribution Q ([2]; particle size D 0.0215 μm, without US): 0%
- Cumulative volume distribution Q ([2]; particle size D 0.0244 μm, 300 s US): 0%
- Cumulative volume distribution Q ([2]; particle size D 0.0244 μm, without US): 0%
- Cumulative volume distribution Q ([2]; particle size D 0.0278 μm, 300 s US): 0%
- Cumulative volume distribution Q ([2]; particle size D 0.0278 μm, without US): 0%
- Cumulative volume distribution Q ([2]; particle size D 0.0315 μm, 300 s US): 0%
- Cumulative volume distribution Q ([2]; particle size D 0.0315 μm, without US): 0%
- Cumulative volume distribution Q ([2]; particle size D 0.0358 μm, 300 s US): 0%
- Cumulative volume distribution Q ([2]; particle size D 0.0358 μm, without US): 0%
- Cumulative volume distribution Q ([2]; particle size D 0.0407 μm, 300 s US): 0%
- Cumulative volume distribution Q ([2]; particle size D 0.0407 μm, without US): 0%
- Cumulative volume distribution Q ([2]; particle size D 756 μm, 300 s US): 100%
- Cumulative volume distribution Q ([2]; particle size D 756 μm, without US, listed as Probe 1): 92.34%
- Cumulative volume distribution Q ([2]; particle size D 859 μm, 300 s US): 100%
- Cumulative volume distribution Q ([2]; particle size D 859 μm, without US, listed as Probe 1): 96.59%
- Cumulative volume distribution Q ([2]; particle size D 976 μm, 300 s US): 100%
- Cumulative volume distribution Q ([2]; particle size D 976 μm, without US, listed as Probe 1): 99.14%
- Cumulative volume distribution Q ([2]; particle size D 1110 μm, 300 s US): 100%
- Cumulative volume distribution Q ([2]; particle size D 1110 μm, without US): 100%
- Cumulative volume distribution Q ([2]; particle size D 1260 μm, 300 s US): 100%
- Cumulative volume distribution Q ([2]; particle size D 1260 μm, without US): 100%
- Cumulative volume distribution Q ([2]; particle size D 1430 μm, 300 s US): 100%
- Cumulative volume distribution Q ([2]; particle size D 1430 μm, without US): 100%
- Cumulative volume distribution Q ([2]; particle size D 1630 μm, 300 s US): 100%
- Cumulative volume distribution Q ([2]; particle size D 1630 μm, without US): 100%
- Cumulative volume distribution Q ([2]; particle size D 1850 μm, 300 s US): 100%
- Cumulative volume distribution Q ([2]; particle size D 1850 μm, without US): 100%
- Cumulative volume distribution Q ([2]; particle size D 2100 μm, 300 s US): 100%
- Cumulative volume distribution Q ([2]; particle size D 2100 μm, without US): 100%
- Cumulative volume distribution Q ([2]; particle size D 2390 μm, 300 s US): 100%
- Cumulative volume distribution Q ([2]; particle size D 2390 μm, without US): 100%
- Cumulative volume distribution Q ([2]; particle size D 2710 μm, 300 s US): 100%
- Cumulative volume distribution Q ([2]; particle size D 2710 μm, without US): 100%
- Cumulative volume distribution Q ([2]; particle size D 3080 μm, 300 s US): 100%
- Cumulative volume distribution Q ([2]; particle size D 3080 μm, without US): 100%
- Cumulative volume distribution Q ([2]; particle size D 3500 μm, 300 s US): 100%
- Cumulative volume distribution Q ([2]; particle size D 3500 μm, without US): 100%
- D(10) [2, 5]: 165 μm
- D(50) [2, 5]: 404 μm
- D(90) [2, 5]: 720 μm
- particle size distribution compared to polymorph C ([2]; without ultrasound treatment): significantly broader particle size distribution and larger particles
- bulk density [3]: 270 kg/m^3

Structure (SMILES): C[C@@H]1OC(=O)NN=C1c1ccc(-c2ccc(F)cc2)c(C(F)(F)F)c1 [micronized product, (6S)-5-[4′-fluoro-2-(trifluoromethyl)[biphenyl]-4-yl]-6-methyl-3,6-dihydro-2H-1,3,4-oxadiazin-2-one]
- Particle Size distribution X10 [4]: 1.2 μm
- Particle Size distribution X50 [4]: 4 μm
- Particle Size distribution X90 [4]: 10 μm
